Measured values as given in US6432383B1, “Method for administering insulin” (Generex Pharmaceuticals Incorporated, priority 2000, dated 2002).

Test system: healthy non-diabetic human volunteers
Assay: Blood glucose in fasted healthy non-diabetic volunteers, injected vs oral insulin (Example 1)
Assay type: in vivo
Set-up: unit not given here
Conditions: sub-cutaneous injection 10 units, avg of 5 fasted healthy volunteers
Experimental: In one set of tests, five healthy non-diabetic human volunteers were tested with insulin, by injection. In another set of tests the volunteers were tested with insulin, taken orally. The volunteers fasted from midnight prior to the test, with no food being taken during the 4 hour study.
On the first day, the volunteers received 10 units insulin by injection (regular fast acting insulin, available from Eli Lilly). On the second day, the volunteers received 100 units (1 mL volume per drop, approximately 20 drops) of the above-prepared oral insulin (10 times the injection dose). In both tests, blood glucose levels were monitored every 15 minutes by Bayer's Glucometer Elite.

insulin [regular fast acting insulin]
Blood glucose levels (0 min): 5.8
Blood glucose levels (15 min): 5.8
Blood glucose levels (30 min): 5.4
Blood glucose levels (60 min): 5.0
Blood glucose levels (75 min): 4.6
Blood glucose levels (90 min): 4.3
Blood glucose levels (120 min): 3.8
Blood glucose levels (150 min): 3.6
Blood glucose levels (180 min): 3.4
Blood glucose levels (210 min): 4.2
Blood glucose levels (240 min): 4.5
